The source of these data is ChEMBL document CHEMBL1201862, “PubChem BioAssay data set” (2004).

Test [1] has as its target DNA dC->dU-editing enzyme APOBEC-3A (Homo sapiens, UniProt P31941). Kind of test: A3A deaminase inhibition for selectivity – biochemical, dose response (AID 504722). Format: functional.
In test [2] the target is DNA dC->dU-editing enzyme APOBEC-3G (Homo sapiens, UniProt Q9HC16). Briefly: Dose Response confirmation of small molecule APOBEC3G DNA Deaminase Inhibitors via a fluorescence-based single-stranded DNA deaminase assay. [Related pubchem assays (depositor defined):AID493012, AID493028]. It counts as functional.
The target of test [3] is T1, Short transient receptor potential channel 4 (Mus musculus, UniProt Q9QUQ5).
T1 sequence (Q9QUQ5 whole entry): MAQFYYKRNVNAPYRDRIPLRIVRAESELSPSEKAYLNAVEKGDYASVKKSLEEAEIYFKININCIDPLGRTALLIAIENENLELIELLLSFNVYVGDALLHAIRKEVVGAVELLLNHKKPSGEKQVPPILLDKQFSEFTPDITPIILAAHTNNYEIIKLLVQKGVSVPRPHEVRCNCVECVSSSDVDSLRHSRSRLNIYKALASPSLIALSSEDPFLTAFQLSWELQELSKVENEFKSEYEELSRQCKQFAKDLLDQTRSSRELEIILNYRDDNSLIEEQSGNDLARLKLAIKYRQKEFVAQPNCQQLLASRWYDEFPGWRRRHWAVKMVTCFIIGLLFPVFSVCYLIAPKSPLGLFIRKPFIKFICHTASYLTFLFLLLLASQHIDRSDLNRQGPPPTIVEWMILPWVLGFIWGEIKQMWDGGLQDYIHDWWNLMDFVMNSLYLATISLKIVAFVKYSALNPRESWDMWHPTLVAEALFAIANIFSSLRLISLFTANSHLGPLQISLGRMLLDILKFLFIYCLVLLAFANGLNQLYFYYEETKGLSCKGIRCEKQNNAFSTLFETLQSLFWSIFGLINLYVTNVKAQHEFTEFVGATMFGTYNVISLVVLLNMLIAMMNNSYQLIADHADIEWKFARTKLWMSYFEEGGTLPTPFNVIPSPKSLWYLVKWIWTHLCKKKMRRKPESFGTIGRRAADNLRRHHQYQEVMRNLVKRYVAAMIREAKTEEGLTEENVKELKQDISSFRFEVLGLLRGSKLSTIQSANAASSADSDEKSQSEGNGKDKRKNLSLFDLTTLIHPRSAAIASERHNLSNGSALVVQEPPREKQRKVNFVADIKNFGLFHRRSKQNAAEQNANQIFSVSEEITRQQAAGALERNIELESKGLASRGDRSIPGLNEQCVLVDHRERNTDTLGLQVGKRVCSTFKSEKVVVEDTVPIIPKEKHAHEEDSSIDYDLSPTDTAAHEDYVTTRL
Kind of test: calcium entry via TRPC4 opening agents – cell-based, HEK293 TRPC4/mu-opioid, Fluo-4 calcium, dose response (AID 434937). Format: functional.

In test [4] the target is T2, Replicative DNA helicase DnaB (Mycobacterium tuberculosis, UniProt P9WMR3).
T2 sequence (P9WMR3 whole entry): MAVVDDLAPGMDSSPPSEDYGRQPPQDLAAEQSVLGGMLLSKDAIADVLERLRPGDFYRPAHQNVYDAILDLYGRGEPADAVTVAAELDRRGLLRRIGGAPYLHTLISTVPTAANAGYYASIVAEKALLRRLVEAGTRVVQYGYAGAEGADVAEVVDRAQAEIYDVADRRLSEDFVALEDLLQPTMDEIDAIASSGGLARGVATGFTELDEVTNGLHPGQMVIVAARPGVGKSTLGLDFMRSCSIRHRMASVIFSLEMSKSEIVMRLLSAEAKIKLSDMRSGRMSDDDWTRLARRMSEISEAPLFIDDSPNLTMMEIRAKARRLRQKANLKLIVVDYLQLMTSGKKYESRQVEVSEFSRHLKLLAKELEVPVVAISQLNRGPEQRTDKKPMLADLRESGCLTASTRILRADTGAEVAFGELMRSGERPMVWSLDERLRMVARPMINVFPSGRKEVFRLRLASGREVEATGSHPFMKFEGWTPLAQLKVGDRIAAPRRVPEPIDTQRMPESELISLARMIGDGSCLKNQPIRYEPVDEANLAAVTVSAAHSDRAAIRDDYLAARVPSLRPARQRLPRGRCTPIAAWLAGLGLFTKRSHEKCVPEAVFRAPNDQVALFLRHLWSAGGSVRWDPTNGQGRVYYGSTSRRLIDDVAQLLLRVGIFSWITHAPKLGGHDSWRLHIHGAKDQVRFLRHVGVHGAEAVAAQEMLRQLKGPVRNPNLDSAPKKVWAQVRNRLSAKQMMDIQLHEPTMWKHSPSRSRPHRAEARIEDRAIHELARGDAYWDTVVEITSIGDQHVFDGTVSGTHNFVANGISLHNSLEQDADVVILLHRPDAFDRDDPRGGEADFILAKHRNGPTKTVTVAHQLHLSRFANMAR
Briefly: DnaB intein splicing inhibitors, dose response, biochemical, cell-free fluorescence (AID 449749). Format: functional.

For the next test, the target named is T3, Protein RecA (Mycobacterium tuberculosis, UniProt P9WHJ3).
T3 sequence (P9WHJ3 whole entry): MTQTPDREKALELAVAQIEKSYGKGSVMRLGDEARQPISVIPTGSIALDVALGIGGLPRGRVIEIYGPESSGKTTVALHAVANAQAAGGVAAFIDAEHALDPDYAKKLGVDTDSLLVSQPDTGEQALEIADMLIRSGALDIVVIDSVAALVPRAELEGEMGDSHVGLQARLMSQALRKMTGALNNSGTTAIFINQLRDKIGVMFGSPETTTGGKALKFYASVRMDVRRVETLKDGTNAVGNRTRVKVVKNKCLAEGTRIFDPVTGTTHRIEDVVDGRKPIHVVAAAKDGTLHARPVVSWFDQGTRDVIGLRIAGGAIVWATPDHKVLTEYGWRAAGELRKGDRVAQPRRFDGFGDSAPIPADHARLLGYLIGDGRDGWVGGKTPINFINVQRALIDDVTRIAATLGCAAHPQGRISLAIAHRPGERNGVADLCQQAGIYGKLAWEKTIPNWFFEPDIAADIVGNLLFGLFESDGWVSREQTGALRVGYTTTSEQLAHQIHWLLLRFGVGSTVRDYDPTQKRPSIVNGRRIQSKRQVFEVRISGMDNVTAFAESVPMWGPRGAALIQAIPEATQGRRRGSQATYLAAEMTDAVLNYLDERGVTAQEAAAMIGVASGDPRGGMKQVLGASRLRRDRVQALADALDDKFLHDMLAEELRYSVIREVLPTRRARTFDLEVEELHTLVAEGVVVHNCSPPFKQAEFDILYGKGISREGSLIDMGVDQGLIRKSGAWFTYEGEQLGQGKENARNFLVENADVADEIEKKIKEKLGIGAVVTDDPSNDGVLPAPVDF
Kind of test: Fluorescence Cell-Free Homogeneous Dose Retest to Identify Inhibitors of RecA-Intein Splicing Activity. [Related pubchem assays (depositor defined):AID2097, AID2223, AID489010, AID492950]. Format: functional.

Another test concerns the target SUMO-activating enzyme (Homo sapiens, UniProt Q9UBT2). Briefly: blockers of SAE1/SAE2–UBC9 SUMO transfer – biochemical, HTRF, uHTS, primary screen (AID 2006). Format: protein-complex assay. On the technique in general: TR-FRET usually uses a lanthanide donor and a delayed reading to cut background.
For test [5], the target named is T4, Mannose-6-phosphate isomerase (Homo sapiens, UniProt P34949).
T4 sequence (P34949 whole entry): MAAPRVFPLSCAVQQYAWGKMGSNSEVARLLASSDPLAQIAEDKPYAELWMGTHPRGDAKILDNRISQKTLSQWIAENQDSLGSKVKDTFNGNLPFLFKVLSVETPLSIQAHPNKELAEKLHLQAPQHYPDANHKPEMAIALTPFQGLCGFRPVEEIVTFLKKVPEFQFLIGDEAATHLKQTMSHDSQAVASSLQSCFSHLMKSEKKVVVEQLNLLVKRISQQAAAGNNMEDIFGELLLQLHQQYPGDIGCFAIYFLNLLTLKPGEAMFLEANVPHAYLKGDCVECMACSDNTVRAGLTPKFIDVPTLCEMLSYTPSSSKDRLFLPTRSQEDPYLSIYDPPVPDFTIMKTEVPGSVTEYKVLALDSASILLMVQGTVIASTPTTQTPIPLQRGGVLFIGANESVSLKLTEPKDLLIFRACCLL
Briefly: MPI inhibition at elevated mannose 6-phosphate – biochemical, fluorescence intensity, high mannose 6-phosphate, primary screen (AID 1220).

Test [6] deals with T5, Rac GTPase-activating protein 1 (Homo sapiens, UniProt Q9H0H5).
T5 sequence (Q9H0H5 whole entry): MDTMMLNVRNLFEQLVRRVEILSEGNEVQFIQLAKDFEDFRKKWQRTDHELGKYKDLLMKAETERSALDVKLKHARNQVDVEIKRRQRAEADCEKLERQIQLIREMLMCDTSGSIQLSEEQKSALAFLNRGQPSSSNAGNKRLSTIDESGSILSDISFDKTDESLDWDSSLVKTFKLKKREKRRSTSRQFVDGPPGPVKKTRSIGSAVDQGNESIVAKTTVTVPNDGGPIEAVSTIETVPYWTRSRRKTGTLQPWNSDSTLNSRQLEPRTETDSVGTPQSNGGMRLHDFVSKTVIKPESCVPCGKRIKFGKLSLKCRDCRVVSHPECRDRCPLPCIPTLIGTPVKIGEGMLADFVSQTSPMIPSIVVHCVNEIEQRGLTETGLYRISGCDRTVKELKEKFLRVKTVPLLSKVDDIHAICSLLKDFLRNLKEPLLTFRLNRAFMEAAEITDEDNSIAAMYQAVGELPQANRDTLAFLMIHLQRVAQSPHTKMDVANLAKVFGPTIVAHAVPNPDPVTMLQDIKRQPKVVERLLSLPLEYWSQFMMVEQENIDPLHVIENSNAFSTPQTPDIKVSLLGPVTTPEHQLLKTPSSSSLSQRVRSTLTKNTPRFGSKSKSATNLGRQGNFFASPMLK
Briefly: blockers of MgcRacGAP-driven Rac1 GTP hydrolysis – biochemical, ADP Hunter fluorescence, primary and confirmatory, confirmation (AID 624330). It counts as functional.

Test [7] has as its target T1, Short transient receptor potential channel 4. Kind of test: block of DAMGO-driven TRPC4 calcium entry – cell-based, HEK293 TRPC4/mu-opioid, Fluo-4 calcium, dose response (AID 434942).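 Further: potency of inhibitors blocking the TRPC4 calcium response.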 Format: functional.
The target in test [8] is T6, Corticotropin-releasing factor receptor 2/Corticotropin-releasing factor-binding protein (Homo sapiens, UniProt P24387+Q13324).
T6 sequence (Q13324 whole entry): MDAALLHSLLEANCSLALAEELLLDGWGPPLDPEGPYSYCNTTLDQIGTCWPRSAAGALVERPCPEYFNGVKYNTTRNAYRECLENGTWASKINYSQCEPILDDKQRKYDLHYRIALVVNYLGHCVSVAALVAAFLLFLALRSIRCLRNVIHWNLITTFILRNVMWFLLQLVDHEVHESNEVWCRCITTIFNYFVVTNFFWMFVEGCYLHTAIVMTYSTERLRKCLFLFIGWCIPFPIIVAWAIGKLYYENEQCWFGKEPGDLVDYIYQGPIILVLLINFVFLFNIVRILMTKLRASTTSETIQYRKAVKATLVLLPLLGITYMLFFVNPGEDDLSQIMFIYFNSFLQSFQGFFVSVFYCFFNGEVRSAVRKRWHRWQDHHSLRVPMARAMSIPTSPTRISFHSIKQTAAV
T6 sequence (P24387 whole entry): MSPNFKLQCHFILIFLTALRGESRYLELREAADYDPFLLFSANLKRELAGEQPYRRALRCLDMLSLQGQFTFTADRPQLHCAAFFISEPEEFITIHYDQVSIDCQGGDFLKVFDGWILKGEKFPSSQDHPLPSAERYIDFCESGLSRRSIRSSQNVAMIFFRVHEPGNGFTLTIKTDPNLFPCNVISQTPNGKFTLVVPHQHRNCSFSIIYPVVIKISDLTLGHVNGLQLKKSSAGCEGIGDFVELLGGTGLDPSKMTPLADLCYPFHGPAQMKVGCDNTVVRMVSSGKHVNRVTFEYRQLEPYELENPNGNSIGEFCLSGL
Kind of test: Dose Response confirmation of uHTS hits for small molecule antagonists of the CRF-binding protein and CRF-R2 receptor complex. It counts as functional. To be noted: read-out: IC50_Mean.

Test [9] deals with T6, Corticotropin-releasing factor receptor 2/Corticotropin-releasing factor-binding protein. Kind of test: activators of CRF receptor 2 with binding protein – uHTS hits, confirmation (AID 602473). It counts as functional. To be noted: read-out: EC50_Mean.
Test [10] can be described thus: blockers of CRF-binding protein–CRF-R2 complex – cell-based, uHTS hits, 384-well, dose response (AID 651639). It counts as functional, Homo sapiens. To be noted: read-out: IC50_Mean.

The source made the active and inactive calls. Some results are limits rather than exact numbers.

Sequence of DNA dC->dU-editing enzyme APOBEC-3A (P31941 whole entry): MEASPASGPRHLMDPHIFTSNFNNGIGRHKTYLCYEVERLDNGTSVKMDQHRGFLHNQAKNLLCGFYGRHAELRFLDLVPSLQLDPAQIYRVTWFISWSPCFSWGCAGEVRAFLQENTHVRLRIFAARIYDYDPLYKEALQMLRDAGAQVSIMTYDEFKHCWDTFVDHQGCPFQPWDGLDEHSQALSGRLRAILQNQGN
Sequence of DNA dC->dU-editing enzyme APOBEC-3G (Q9HC16 whole entry): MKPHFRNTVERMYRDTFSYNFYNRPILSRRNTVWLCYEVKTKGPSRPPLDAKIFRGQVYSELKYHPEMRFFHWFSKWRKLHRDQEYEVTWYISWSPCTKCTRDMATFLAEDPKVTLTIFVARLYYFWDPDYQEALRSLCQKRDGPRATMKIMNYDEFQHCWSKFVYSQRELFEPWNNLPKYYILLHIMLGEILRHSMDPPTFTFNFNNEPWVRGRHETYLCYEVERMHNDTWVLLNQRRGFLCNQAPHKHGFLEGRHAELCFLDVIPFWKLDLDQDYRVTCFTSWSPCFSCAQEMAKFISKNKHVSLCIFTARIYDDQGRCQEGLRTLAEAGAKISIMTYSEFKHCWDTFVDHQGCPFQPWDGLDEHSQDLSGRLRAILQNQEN
Sequence of SUMO-activating enzyme (Q9UBE0 whole entry): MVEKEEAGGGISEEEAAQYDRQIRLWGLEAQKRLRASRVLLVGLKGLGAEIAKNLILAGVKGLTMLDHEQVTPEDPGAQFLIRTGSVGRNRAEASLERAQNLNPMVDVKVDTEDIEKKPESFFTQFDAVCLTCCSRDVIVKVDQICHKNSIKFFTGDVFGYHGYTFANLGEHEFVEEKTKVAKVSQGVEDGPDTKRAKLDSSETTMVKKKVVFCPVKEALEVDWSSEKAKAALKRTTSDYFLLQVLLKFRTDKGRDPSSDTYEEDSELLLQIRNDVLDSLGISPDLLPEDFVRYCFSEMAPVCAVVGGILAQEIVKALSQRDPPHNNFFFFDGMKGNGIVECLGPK
Sequence of SUMO-activating enzyme (Q9UBT2 whole entry): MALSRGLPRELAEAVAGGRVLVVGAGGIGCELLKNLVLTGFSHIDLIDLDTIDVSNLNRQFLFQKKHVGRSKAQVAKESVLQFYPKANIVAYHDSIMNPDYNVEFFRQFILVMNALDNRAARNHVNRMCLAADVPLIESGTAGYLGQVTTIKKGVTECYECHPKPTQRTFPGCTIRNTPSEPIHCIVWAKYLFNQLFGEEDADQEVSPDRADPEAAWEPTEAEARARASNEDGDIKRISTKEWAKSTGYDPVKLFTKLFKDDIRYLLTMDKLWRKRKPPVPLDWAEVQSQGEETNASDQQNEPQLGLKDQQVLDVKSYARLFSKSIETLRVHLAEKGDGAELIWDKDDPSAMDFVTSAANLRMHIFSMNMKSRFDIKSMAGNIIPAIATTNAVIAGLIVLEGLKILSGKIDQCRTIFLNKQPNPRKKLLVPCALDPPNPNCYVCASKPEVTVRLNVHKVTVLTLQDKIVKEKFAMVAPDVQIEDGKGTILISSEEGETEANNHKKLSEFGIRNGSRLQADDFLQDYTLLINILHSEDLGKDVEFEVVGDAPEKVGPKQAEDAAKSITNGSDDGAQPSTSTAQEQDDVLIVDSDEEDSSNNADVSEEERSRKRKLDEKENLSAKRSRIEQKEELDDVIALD

With `Cc1ccccc1C(=O)NNC(=S)NC(=O)COc1ccccc1`, the figures for the IC50 in [1] and in test [2] were > 100 µM (inactive) and 12.7 µM (active), respectively. Also, the results for the EC50 (in [3]; on Protein RecA) were 5.31 µM (active) and 17.7 µM (active), respectively. The AC50 in test [4] is 29 µM (active).

As for `COc1ccc2c(c1)-c1nc(/N=C/c3cccc(OC)c3O)sc1CC2`, the IC50 is > 100 µM (inactive) on SUMO-activating enzyme, > 50 µM (not active) in test [5] and 23.7 µM (active) in test [6].

With `CCOC(=O)C1(Cc2ccccc2)CCN(CC2CC=CCC2)CC1` (stereo not drawn), in test [7], the EC50 is 13.3 µM (active).

For the compound `COC(=O)CSc1nn(-c2ccc(F)cc2)c(=S)s1`, the results for the EC50 in [7] and in test [9] were 6.68 µM (active) and > 53 µM (inactive), respectively. The IC50 in test [8] was 4.86 µM (active); in test [10], > 20 µM (inactive).

In general, AC50 refers to the midpoint of the concentration-response curve, whichever way the signal moves.
